# Reference: PMC11714206, “Massively Parallel Screening of Toll/Interleukin‐1 Receptor (TIR)‐Derived Peptides Reveals Multiple Toll‐Like Receptors (TLRs)‐Targeting Immunomodulatory Peptides” (Advanced Science, 2024)
# Molecular target: T1, MyD88^TIR (Homo sapiens, UniProt Q99836)
# T1 construct: MyD88 (residues 148–296); 6xHis; made in house; host or cells: E. coli BL21 (DE3)
# Experiment: T‐Surf phage library (P8 and P3) selection against MyD88^TIR, four rounds, NGS read counts
# Format: binding
# Details: for P8_MyD88 Rank (after) / P8_MyD88 Rank (before): P8 library; for Population: 4th round of selection against MyD88 TIR, share of NGS reads; for P3_MyD88 Rank (after) / P3_MyD88 Rank (before): P3 library
# How it was run: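 Read counts come from NGS of phage pools after the fourth selection round, barcoded by 20-cycle PCR and filtered for quality ≥30. Each round: phage incubated 1 h at RT on immobilised TIR protein (5 µg mL^−1, BSA-blocked), washed, HCl-eluted and amplified in E. coli TG1.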
# [1] = 4R selection against MyD88, rank after grouping
# [2] = 4R selection against MyD88, rank before grouping
# [3] = P8_MyD88: rank by NGS read count after grouping
# [4] = P8_MyD88: rank by NGS read count before grouping
# [5] = P8_MyD88: rank by count after grouping
# [6] = P8_MyD88: rank by count before grouping
# [7] = P3_MyD88 pool: P3 T-Surf phage library
# [8] = P3_MyD88: rank by count after grouping
# [9] = P3_MyD88: rank by count before grouping
# [10] = selection against MyD88, rank by count after grouping
# [11] = selection against MyD88, rank by count before grouping
# [12] = selection against MyD88, rank after grouping
# [13] = selection against MyD88, rank before grouping
# [14] = selection against MyD88 TIR, rank by count after grouping
# [15] = selection against MyD88 TIR, rank by count before grouping
# T1 sequence (Q99836 148-296): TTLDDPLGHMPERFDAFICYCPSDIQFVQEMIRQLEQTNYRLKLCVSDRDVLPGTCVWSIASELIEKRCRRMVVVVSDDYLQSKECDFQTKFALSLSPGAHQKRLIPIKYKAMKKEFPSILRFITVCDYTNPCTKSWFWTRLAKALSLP
sequence,measurement,setting,value
IDDDHLTYLVRLLYSL,P8_MyD88 Rank (after),[1],607
same,P8_MyD88 Rank (before),[2],3631
IDDDHLTYLVRLLYSLHVT,P8_MyD88 Rank (after),[1],669
same,P8_MyD88 Rank (before),[2],3630
IDDDHLTYLVRLLYSLHVTE,Rank (after),[3],895
same,Rank (before),[4],3629
IDDDHLYAALVQAGIL,P8_MyD88 Rank (after),[1],639
same,P8_MyD88 Rank (before),[2],3622
IDDEHLTYLGRLLLSR,P8_MyD88 Rank (after),[1],580
same,P8_MyD88 Rank (before),[2],3649
IDDHHLTFLVSLLLSL,Rank (after),[3],975
same,Rank (before),[4],3651
IFISHLYNSLTNAGIY,Rank (after),[5],178
same,Rank (before),[6],227
IQCRNATSPAALLIGR,P8_MyD88 Rank (after),[1],651
same,P8_MyD88 Rank (before),[2],3652
ISFREGLWRLLELSKK,Population,[7],0.00291%
ISYRQGRWRLLELSKK,Rank (after),[8],461
same,Rank (before),[9],2919
IVQALWSKVHHSLTLF,Rank (after),[5],145
same,Rank (before),[6],157
same,Population,P8_MyD88 pool: P8 T-Surf phage library,0.01%
IVQEQDGFWVRLIEAL,P8_MyD88 Rank (after),[1],616
same,P8_MyD88 Rank (before),[2],3611
IWVWDFYNSQLEGPMG,P8_MyD88 Rank (after),[10],753
same,P8_MyD88 Rank (before),[11],3609
KARQFGALREEKLRAA,Rank (after),[8],425
same,Rank (before),[9],3599
KDVEGWRDALTKVASL,Population,[7],0.00349%
KELVHVWSSKANSRVG,P3_MyD88 Rank (after),[1],651
same,P3_MyD88 Rank (before),[2],3662
KEPENYRFALHERDFP,P3_MyD88 Rank (after),[1],662
same,P3_MyD88 Rank (before),[2],3685
KEPERYQFAIPERDFP,P3_MyD88 Rank (after),[12],540
same,P3_MyD88 Rank (before),[13],3681
KEREFGAQRAGKWRAA,P3_MyD88 Rank (after),[1],670
same,P3_MyD88 Rank (before),[2],3663
KERPFGAQRAEKCVP,Rank (after),[8],447
same,Rank (before),[9],3673
KERPFGAQRAEKWRAALT,P3_MyD88 Rank (after),[12],567
same,P3_MyD88 Rank (before),[13],3671
KEVEGWRCADQSGEP,P3_MyD88 Rank (after),[1],666
same,P3_MyD88 Rank (before),[2],3653
KEVEGWRDALPTVASL,P3_MyD88 Rank (after),[14],220
same,P3_MyD88 Rank (before),[15],3622
KEVEGWRDALTKAANL,Rank (after),[8],138
same,Rank (before),[9],3640
KEVEGWRDALTKVACR,Rank (after),[8],109
same,Rank (before),[9],1305
KEVEGWRDALTKVATI,Population,[7],0.0032%
KEVEGWRDALYEAANLS,P3_MyD88 Rank (after),[10],684
same,P3_MyD88 Rank (before),[11],3620
KEVEGWRGALTKKASL,P3_MyD88 Rank (after),[1],626
same,P3_MyD88 Rank (before),[2],3614
KEVEGWRNALTNVASL,P3_MyD88 Rank (after),[1],617
same,P3_MyD88 Rank (before),[2],3650
KEVEVWRDALTKVVGL,P3_MyD88 Rank (after),[10],713
same,P3_MyD88 Rank (before),[11],3606
KEVKGWRDALTTVASL,P3_MyD88 Rank (after),[14],252
same,P3_MyD88 Rank (before),[15],3659
KFFLFFMILAFSMNR,P8_MyD88 Rank (after),[12],487
same,P8_MyD88 Rank (before),[13],3892
KIARCMIFGVFWKAP,P8_MyD88 Rank (after),[12],527
same,P8_MyD88 Rank (before),[13],3897
KLDSAMIIKVQRWREA,P3_MyD88 Rank (after),[1],618
same,P3_MyD88 Rank (before),[2],3698
KLDSARMRKVQRLRET,P3_MyD88 Rank (after),[12],576
same,P3_MyD88 Rank (before),[13],3706
KMQKWKDALYEAPNL,Rank (after),[8],113
same,Rank (before),[9],1321
KMQKWNDALYEAAHLR,P3_MyD88 Rank (after),[1],636
same,P3_MyD88 Rank (before),[2],3714
KNLFNELVHVWSSKANSLVG,Rank (after),[8],148
same,Rank (before),[9],800
KNLFNELVSKNIRTL,Rank (after),[8],103
same,Rank (before),[9],542
KNLFNELVSKNIVPL,P3_MyD88 Rank (after),[10],686
same,P3_MyD88 Rank (before),[11],3755
KNLFNLLGSKDIRALM,P3_MyD88 Rank (after),[12],542
same,P3_MyD88 Rank (before),[13],3781
KNLIMEQLSKELHTVM,P3_MyD88 Rank (after),[10],724
same,P3_MyD88 Rank (before),[11],3792
KNLLNALMSKNIRTFM,P3_MyD88 Rank (after),[1],622
same,P3_MyD88 Rank (before),[2],3789
KNLLNELVSKNIRTFM,Population,[7],0.00466%
KNLLNELVSKTIRTFM,Rank (after),[8],470
same,Rank (before),[9],3790
KNLSNELVSKNILTFM,P3_MyD88 Rank (after),[14],260
same,P3_MyD88 Rank (before),[15],3787
KQWRNALTAEANLSGW,P3_MyD88 Rank (after),[12],557
same,P3_MyD88 Rank (before),[13],3552
KWFWDKLKYALPHRYEP,Rank (after),[8],128
same,Rank (before),[9],790
KWLWDKLIYARSRNPH,P3_MyD88 Rank (after),[12],490
same,P3_MyD88 Rank (before),[13],3584
KWLWEKRTCGHSRNTA,P3_MyD88 Rank (after),[10],676
same,P3_MyD88 Rank (before),[11],3585
